Experimental data: patent publication US10233201B2, “Class of HDAC inhibitors expands the renal progenitor cells population and improves the rate of recovery from acute kidney injury” (University of Pittsburgh—Of the Commonwealth System of …, priority 2012, dated 2019)
“And” between values parts separate entries of the source, which are not always exact repeats. Equal values may be shown once. Read-outs that look alike come from different tables or passages of the source.

How the values were obtained:
[1] = test system: renal progenitor cells (lhx1a expression); test: In situ hybridization for lhx1a expression in 10-somite embryos (renal progenitor cell expansion); assay type: in vivo; settings: for embryos with expanded lhx1a expression (% expansion) / lhx1a expansion class, 3 μM: 3 μM from 2 hpf, 10-somite embryos; for lhx1a expansion class, 800 nM: 800 nM from 2 hpf; for lhx1a expansion class, 200 nM: 200 nM from 2 hpf; for lhx1a expansion class, 400 nM: 400 nM from 2 hpf; for Expansion of Cells, 200 nM / Expansion of Cells, 800 nM / Expansion of Cells, 1.5 μM / Expansion of Cells, 400 nM: lhx1a in situ hybridization, includes repeats* and recounts
Protocol: (§1) PTBA was synthesized as described below. Hydroxyurea and aphidicolin were obtained from Sigma-Aldrich.
(§2) In situ hybridization and immunocytochemistry: In situ hybridization was performed as previously described with some modifications. 142 Hybridization temperature was 65° C. Embryos were blocked in 2% blocking reagent (Roche) with 5% sheep serum in MAB (100 mM maleic acid and 150 mM NaCl [pH 7.5]). Whole-mount immunocytochemistry with 1:25 mouse anti-α6F antibody (Developmental Studies Hybridoma Bank) and 1:100 Cy3 secondary antibody (Jackson ImmunoResearch) was performed as described previously. 108 Embryos were embedded in JB-4 for sectioning per the manufacturer's instructions (Polysciences), sectioned at 5 μm, and mounted with Cytoseal 60 (Richard-Allan Scientific).
The remaining PTBA analogs were synthesized.
In situ hybridization for lhx1a was performed as described above. […] Compounds were classified as effective, partially-effective or ineffective based on comparison to the effects of PTBA at a given concentration.
Testing of the compounds is on-going, but for those tested, Table 3 provides first pass EC50s based upon colormetric in situ hybridizations for the Lhx1a mRNA expression levels. After the procedure is run, in situ hybridization is done for the lhx1 mRNA expression and the number of embryos that show an expanded kidney field is manually counted to establish the percent of embryos showing expansion. Then the EC50 is determined by plotting the percent expansion in Excel, graphing the results and using the trendline function to determine the 50 percent point. […] For UPHD-00186, the 4 values for EC50 are shown in Table 3 for the corresponding expression in zebrafish embryos employed an artificial intelligence-based image analysis method termed cognition network technology (CNT) for n=4.

zebrafish larvae = test: Phenotypic scoring of edema and survival in zebrafish larvae at 72 hpf; assay type: in vivo; settings: for larval phenotype in phenotypic screen of analogs: 3 μM, 2 to 72 hpf; for phenotype in initial chemical screen: 10 μM, larvae at 72 hpf
Excerpt: as §1
Wild type: no visible edema or developmental delay.

[2] = test system: pax2a, pax8 expression (kidney field); test: In situ hybridization for renal progenitor markers pax2a, pax8 / kidney field; assay type: in vivo, zebrafish; settings: screen hits, data not shown
Protocol: as §1, §2

[3] = test system: human HDACs (HeLa cell nuclear extract); test: Fluorescence histone deacetylation assay with HeLa cell nuclear extract; assay type: biochemical; settings: 5 mM compound, 10 μg HeLa extract
Protocol: To evaluate this in vitro, the deacetylation of a fluorescent peptide substrate was measured in the presence of human HDACs.
In vitro HDAC activity assays were performed using a fluorescence HDAC assay kit (Active Motif) according to the manufacturer's instructions. For maintaining compound solubility at 5 mM, the final DMSO concentration in all assay wells was increased to 5%. Fluorescence was detected using an M5 Plate Reader ([…])

[4] = test system: mouse models of unilateral ureteral obstruction (UUO); test: Unilateral ureteral obstruction (UUO); assay type: in vivo; settings: IP days 0 to 6, kidneys harvested at day 7
Excerpt: The model of unilateral ureteral obstruction generates progressive renal fibrosis. Surgically created UUO can be experimentally manipulated with respect to timing, severity, and duration, while reversal of the obstruction permits the study of recovery.
FIG. 47 represents the results of the testing of compounds UPHD-00022, UPHD-00025 (PTBA), UPHD-00029, UPHD-00036, and UPHD-00186, for their efficacy in mouse models of unilateral ureteral obstruction (UUO) as follows: in the UUO models, one ureter was ligated for 7 days and compounds were delivered via IP for days 0 to 6. At day 7 kidneys were harvested for Sirius red staining. […] Therefore, in the models tested, the only compound proven to be effective in all models and with significant delayed onset of treatment is UPHD-186.

[5] = Danio rerio, 800 nM, read-out: embryos with expanded lhx1a expression (% expansion)
[6] = Danio rerio, 400 nM, read-out: embryos with expanded lhx1a expression (% expansion)

Compound: 2-amino-PTBA [Compound 2-amino-PTBA, reference compound]
- embryos with expanded lhx1a expression (% expansion) [1]: no expansion

Compound: O=C(O)c1cccc(Sc2ccccc2)c1 [3-(phenylthio)benzoic acid, reference compound]
- embryos with expanded lhx1a expression (% expansion) [1]: no expansion

Compound: O=C(O)CCCSc1ccc2ccccc2c1 [4-(naphthalen-2-ylthio)butanoic acid, reference compound]
- embryos with expanded lhx1a expression (% expansion) ([1]; listed as 4-(napthalen-2-ylthio)butanoic acid): no expansion

Compound: O=C(CCCSc1ccc(Cl)cc1)NO [4-[(4-chlorophenyl)thio]-N-hydroxybutanamide]
- lhx1a expansion class, 800 nM [1]: +/−

Compound: O=C(O)CCCCc1ccccc1 [5-phenylpentanoic acid, reference compound]
- embryos with expanded lhx1a expression (% expansion) [1]: no expansion

Compound: Cn1cc(C(=O)Cc2ccccc2)cc1/C=C/C(=O)NO [APHA compound 8, reference compound]
- lhx1a expansion class, 3 μM [1]: −

Compound: Nc1ccccc1NC(=O)c1ccc(CNC(=O)OCc2cccnc2)cc1 [MS-275, reference compound]
- lhx1a expansion class, 3 μM [1]: −
- larval phenotype in phenotypic screen of analogs (zebrafish larvae): showed no effect on zebrafish embryos

Compound: O=C(CCCSc1ccccc1)NO [N-hydroxy-4-(phenylthio)butanamide]
- lhx1a expansion class, 800 nM [1]: +/−

Compound: Cc1ccc(SCCCC(=O)NO)cc1 [N-hydroxy-4-[(4-methylphenyl)thio]butanamide]
- lhx1a expansion class, 200 nM [1]: −
- lhx1a expansion class, 400 nM [1]: −
- lhx1a expansion class, 800 nM [1]: +
- responders at 0.8 µM [1, 5]: 61%

Compound: N=C(N)SCc1ccc(Cl)cc1Cl.O=[N+]([O-])c1c(O)c(Cl)cc(Cl)c1Cl [NSC35400]
- effect on size of the kidney field / renal markers (in situ hybridization) [2]: did not affect the size of the kidney field
- phenotype in initial chemical screen (zebrafish larvae): generated pericardial edema

Compound: COc1ccc(/C=C(\C#N)C(N)=O)c(OC)c1 [NSC134664]
- effect on size of the kidney field / renal markers (in situ hybridization) [2]: did not affect the size of the kidney field
- phenotype in initial chemical screen (zebrafish larvae): generated pericardial edema

Compound: N=C(N)c1ccc(N=Nc2c(O)ccc3c2[nH]c2ccccc23)cc1 [NSC357777]
- effect on size of the kidney field / renal markers (in situ hybridization) [2]: did not affect the size of the kidney field
- phenotype in initial chemical screen (zebrafish larvae): generated pericardial edema

Compound: O=C(O)CCCS(=O)(=O)c1ccccc1 [PSOBA, 4-(phenylsulfonyl)butanoic acid, reference compound]
- embryos with expanded lhx1a expression (% expansion) [1]: no ability to expand renal progenitor cells
- HDAC activity, % of the control value [3]: 70%

Compound: O=C(CCCCCCC(=O)Nc1ccccc1)NO [SAHA, reference compound]
- lhx1a expansion class, 3 μM [1]: −
- larval phenotype in phenotypic screen of analogs (zebrafish larvae): showed no effect on zebrafish embryos

Compound: O=C(CCCSc1ccc(F)cc1)NO [UPHD-00029, 4-[(4-fluorophenyl)sulfanyl]-N-hydroxybutanamide]
- lhx1a expansion class, 200 nM [1]: −
- lhx1a expansion class, 400 nM [1]: +/−
- lhx1a expansion class, 800 nM [1]: +
- responders at 0.4 µM [1, 6]: 35%
- responders at 0.8 µM [1, 5]: 60%
- Expansion of Cells, 200 nM [1]: 6.25%
- Expansion of Cells, 800 nM [1]: 60% and 33%
- Expansion of Cells, 1.5 μM [1]: 82.4%
- fibrosis (Sirius red) and expression of fibrosis markers in UUO kidney [4]: reduce both fibrosis and expression of fibrosis markers

Compound: Nc1ccccc1NC(=O)CCCSc1ccccc1 [UPHD-00036, N-(2-aminophenyl)-4-(phenylsulfanyl)butanamide]
- fibrosis (Sirius red) and expression of fibrosis markers in UUO kidney [4]: reduce both fibrosis and expression of fibrosis markers

Compound: O=C(CCCCCSc1ccccc1)Nc1ccccc1O [UPHD-00187, N-(2-hydroxyphenyl)-6-(phenylsulfanyl) hexanamide]
- Expansion of Cells, 400 nM [1]: 58%
- Expansion of Cells, 800 nM [1]: 52%
- Expansion of Cells, 1.5 μM [1]: 52%

Compound: Nc1ccccc1NC(=O)CCCCSCc1ccccc1 [UPHD-00188, N-(2-aminophenyl)-5-(benzysulfanyl) pentanamide]
- Expansion of Cells, 800 nM [1]: 0%
- Expansion of Cells, 1.5 μM [1]: 0%

Compound: Nc1ccccc1NC(=O)CCCSCCc1ccccc1 [UPHD-00190, N-(2-aminophenyl)-4-[(2-phenylethyl)sulfanyl]butanamide]
- expansion ([1]; 0.055 μM): 72%
- Expansion of Cells, 200 nM [1]: 50%
- Expansion of Cells, 400 nM [1]: 0%
- Expansion of Cells, 800 nM [1]: 0%
- Expansion of Cells, 1.5 μM [1]: 0%

Compound: CCC(=O)CCCCC[C@@H]1NC(=O)[C@H]2CCCCN2C(=O)[C@H]([C@@H](C)CC)NC(=O)[C@H](Cc2cn(OC)c3ccccc23)NC1=O [apicidin, reference compound]
- lhx1a expansion class, 200 nM [1]: −
- lhx1a expansion class, 400 nM [1]: +/−
- lhx1a expansion class, 800 nM [1]: XX^1
- embryos surviving treatment ([1]; 800 nM, n=36): 31%
- treated embryos killed ([1]; 800 nM, n=36): 69%
- lethality before the 10-somite stage ([1]; 1.5 μM): lethal
- lethality before the 10-somite stage ([1]; 3 μM): killed all treated embryos
- responders at 0.4 µM ([1]; Danio rerio, read-out: embryos with expanded lhx1a expression (% expansion), 400 nM): 22%

Compound: CCC(C)OC(=O)CCCSc1ccccc1 (stereo not shown) [butan-2-yl 4-(phenylthio)butanoate]
- lhx1a expansion class, 800 nM [1]: +/−

Compound: COC(=O)CCCSc1ccc(F)cc1 [methyl 4-[(4-fluorophenyl)thio]butanoate]
- lhx1a expansion class, 200 nM [1]: +/−
- lhx1a expansion class, 400 nM [1]: +/−
- lhx1a expansion class, 800 nM [1]: +
- lethality before the 10-somite stage ([1]; 3 μM): killed all treated embryos
- responders at 0.2 µM ([1]; Danio rerio, 200 nM, read-out: embryos with expanded lhx1a expression (% expansion)): 22%
- responders at 0.4 µM [1, 6]: 26%
- responders at 0.8 µM [1, 5]: 64%

Compound: COC(=O)CCCSc1ccc(C)cc1 [methyl 4-[(4-methylphenyl)thio]butanoate]
- lhx1a expansion class, 200 nM [1]: −
- lhx1a expansion class, 400 nM [1]: −
- lhx1a expansion class, 800 nM [1]: +
- responders at 0.8 µM [1, 5]: 49%

Compound: CCCOC(=O)CCCSc1ccccc1 [propyl 4-(phenylthio)butanoate]
- lhx1a expansion class, 800 nM [1]: +/−

Compound: CC(C)(C)OC(=O)CCCSc1ccccc1 [tert-butyl 4-(phenylthio)butanoate]
- larval phenotype in phenotypic screen of analogs (zebrafish larvae): did not cause a statistically-significant decrease in the number of wild-type larval phenotypes

Compound: O=C(CCCCCCC(=O)Nc1ccc([C@H]2O[C@@H](CSc3nc(-c4ccccc4)c(-c4ccccc4)o3)C[C@@H](c3ccc(CO)cc3)O2)cc1)NO [tubacin]
- larval phenotype in phenotypic screen of analogs (zebrafish larvae): appeared wild-type

Compound: CCCC(CCC)C(=O)O [valproic acid]
- larval phenotype in phenotypic screen of analogs (zebrafish larvae): generated edemic and/or lethal phenotypes
